# From PMC10648852, “Molecular drivers of resistance to sulbactam-durlobactam in contemporary clinical isolates of Acinetobacter baumannii” (Antimicrobial Agents and Chemotherapy, 2023)
# Where two headings read alike, the source gives them in different places.
# Experiments:
# A. baumannii PBP3 S395F = assay: Acylation rate constant (kinact/Ki), fluorescence anisotropy competition with BOCILLIN; details: variant data from McLeod et al. (2018)
# [1] = test system: A. pittii clinical isolates; assay: microbe, parasite or virus in culture; format: cell-based; details: Acinetobacter pittii
# Method in brief: (§1)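 Broth microdilution MICs following CLSI methods, interpreted with CLSI breakpoints where available. Sulbactam tested as twofold dilutions combined with fixed 4 µg/mL durlobactam.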
# [2] = test system: A. nosocomialis clinical isolate; assay: microbe, parasite or virus in culture; format: cell-based; details: Acinetobacter nosocomialis, isolate ARC7023 (IHMA 2118812), France, BSI, 2019, read-out: MIC
# Method in brief: as §1
# [3] = test system: A. baumannii clinical isolates; assay: microbe, parasite or virus in culture; format: cell-based; details: Acinetobacter baumannii
# Method in brief: as §1
# A. baumannii PBP3 H370Y = assay: Acylation rate constant (kinact/Ki), fluorescence anisotropy competition with BOCILLIN
# [4] = test system: ABC clinical isolates with SUL-DUR MIC > 4 µg/mL; assay: microbe, parasite or virus in culture; format: cell-based, Acinetobacter baumannii-calcoaceticus complex
# Method in brief: as §1
# A. baumannii PBP3 N377Y = assay: Acylation rate constant (kinact/Ki), fluorescence anisotropy competition with BOCILLIN
# [5] = test system: A. baumannii wild-type PBP3; assay: as above; details: Wildtype PBP3
# A. baumannii PBP3 N392T = assay: as above
# A. baumannii PBP3 Q488K = assay: as above
# A. baumannii PBP3 S390T = test system: A. baumannii PBP3 S390T; design: method as in McLeod et al. (2018); details: average ± SD, ref McLeod et al. (2018); cited from earlier work
smiles,measurement,setting,value
C[C@@H](O)[C@H]1C(=O)N2C(C(=O)O)=C(SCCN=CN)C[C@H]12 [imipenem],% WT,A. baumannii PBP3 S395F,2.0%
same,MIC,"[1]; isolate ARC6949 (IHMA 1898982), Romania, RTI, 2018, read-out: MIC",> 64 µg/mL
same,MIC,"[1]; isolate ARC6951 (IHMA 1776233), Philippines, RTI, 2018, read-out: MIC",> 64 µg/mL
same,MIC,"[1]; isolate ARC6952 (IHMA 1899008), Romania, RTI, 2018, read-out: MIC",> 64 µg/mL
same,MIC,"[1]; isolate ARC7087 (IHMA 2212062), Colombia, BSI, 2020, read-out: MIC",64 µg/mL
same,MIC,[2],64 µg/mL
same,MIC,"[3]; isolate ARC6644 (IHMA 1420327), Mexico, UTI, 2016, read-out: MIC",16 µg/mL
same,MIC,"[3]; isolate ARC6645 (IHMA 1435703), France, UTI, 2016, read-out: MIC",> 64 µg/mL
same,MIC,"[3]; isolate ARC6646 (IHMA 1484127), United States, RTI, 2016, read-out: MIC",64 µg/mL
same,MIC,"[3]; isolate ARC6647 (IHMA 1386786), Argentina, RTI, 2016, read-out: MIC",> 64 µg/mL
same,MIC,"[3]; isolate ARC6648 (IHMA 1407634), Spain, RTI, 2016, read-out: MIC",> 64 µg/mL
same,MIC,"[3]; isolate ARC6650 (IHMA 1457337), Argentina, RTI, 2016, read-out: MIC",32 µg/mL
same,MIC,"[3]; isolate ARC6652 (IHMA 1465642), Belgium, RTI, 2016, read-out: MIC",64 µg/mL
same,MIC,"[3]; isolate ARC6653 (IHMA 1308777), Vietnam, RTI, 2016, read-out: MIC",64 µg/mL
same,MIC,"[3]; isolate ARC6799 (IHMA 1562935), Spain, UTI, 2017, read-out: MIC",64 µg/mL
same,MIC,"[3]; isolate ARC6800 (IHMA 1557526), Turkey, RTI, 2017, read-out: MIC",64 µg/mL
same,MIC,"[3]; isolate ARC6801 (IHMA 1662094), Thailand, RTI, 2017, read-out: MIC",> 64 µg/mL
same,MIC,"[3]; isolate ARC6802 (IHMA 1557073), Spain, UTI, 2017, read-out: MIC",64 µg/mL
same,MIC,"[3]; isolate ARC6803 (IHMA 1589408), Belgium, UTI, 2017, read-out: MIC",64 µg/mL
same,MIC,"[3]; isolate ARC6805 (IHMA 1558650), United States, RTI, 2017, read-out: MIC",32 µg/mL
same,MIC,"[3]; isolate ARC6808 (IHMA 1557168), Spain, RTI, 2017, read-out: MIC",64 µg/mL
same,MIC,"[3]; isolate ARC6809 (IHMA 1699528), Guatemala, RTI, 2017, read-out: MIC",> 64 µg/mL
same,MIC,"[3]; isolate ARC6810 (IHMA 1699548), Guatemala, RTI, 2017, read-out: MIC",> 64 µg/mL
same,MIC,"[3]; isolate ARC6812 (IHMA 1699530), Guatemala, RTI, 2017, read-out: MIC",64 µg/mL
same,MIC,"[3]; isolate ARC6813 (IHMA 1699543), Guatemala, UTI, 2017, read-out: MIC",> 64 µg/mL
same,MIC,"[3]; isolate ARC6814 (IHMA 1699512), Guatemala, RTI, 2017, read-out: MIC",> 64 µg/mL
same,MIC,"[3]; isolate ARC6815 (IHMA 1699513), Guatemala, RTI, 2017, read-out: MIC",> 64 µg/mL
same,MIC,"[3]; isolate ARC6816 (IHMA 1699521), Guatemala, RTI, 2017, read-out: MIC",> 64 µg/mL
same,MIC,"[3]; isolate ARC6817 (IHMA 1699523), Guatemala, RTI, 2017, read-out: MIC",> 64 µg/mL
same,MIC,"[3]; isolate ARC6818 (IHMA 1683261), Thailand, RTI, 2017, read-out: MIC",> 64 µg/mL
same,MIC,"[3]; isolate ARC6819 (IHMA 1683267), Thailand, RTI, 2017, read-out: MIC",> 64 µg/mL
same,MIC,"[3]; isolate ARC6820 (IHMA 1647876), Argentina, RTI, 2017, read-out: MIC",64 µg/mL
same,MIC,"[3]; isolate ARC6821 (IHMA 1699517), Guatemala, RTI, 2017, read-out: MIC",> 64 µg/mL
same,MIC,"[3]; isolate ARC6822 (IHMA 1637626), Guatemala, RTI, 2017, read-out: MIC",64 µg/mL
same,MIC,"[3]; isolate ARC6823 (IHMA 1620872), Greece, SSSI, 2017, read-out: MIC",64 µg/mL
same,MIC,"[3]; isolate ARC6824 (IHMA 1625487), Argentina, BSI, 2017, read-out: MIC",64 µg/mL
same,MIC,"[3]; isolate ARC6937 (IHMA 1562926), Spain, UTI, 2017, read-out: MIC",64 µg/mL
same,MIC,"[3]; isolate ARC6950 (IHMA 1820064), Israel, RTI, 2018, read-out: MIC",> 64 µg/mL
same,MIC,"[3]; isolate ARC6953 (IHMA 1909827), Turkey, IAI, 2018, read-out: MIC",64 µg/mL
same,MIC,"[3]; isolate ARC6954 (IHMA 1838192), Guatemala, SSSI, 2018, read-out: MIC",> 64 µg/mL
same,MIC,"[3]; isolate ARC6955 (IHMA 1825425), United States, RTI, 2018, read-out: MIC",64 µg/mL
same,MIC,"[3]; isolate ARC7008 (IHMA 2009813), Thailand, BSI, 2019, read-out: MIC",> 64 µg/mL
same,MIC,"[3]; isolate ARC7009 (IHMA 2043611), United States, UTI, 2019, read-out: MIC",> 64 µg/mL
same,MIC,"[3]; isolate ARC7010 (IHMA 2043398), United States, RTI, 2019, read-out: MIC",> 64 µg/mL
same,MIC,"[3]; isolate ARC7011 (IHMA 2104553), Germany, RTI, 2019, read-out: MIC",> 64 µg/mL
same,MIC,"[3]; isolate ARC7012 (IHMA 2010001), Thailand, RTI, 2019, read-out: MIC",> 64 µg/mL
same,MIC,"[3]; isolate ARC7013 (IHMA 1962831), Argentina, RTI, 2019, read-out: MIC",> 64 µg/mL
same,MIC,"[3]; isolate ARC7014 (IHMA 2045328), Guatemala, IAI, 2019, read-out: MIC",64 µg/mL
same,MIC,"[3]; isolate ARC7015 (IHMA 2045327), Guatemala, UTI, 2019, read-out: MIC",64 µg/mL
same,MIC,"[3]; isolate ARC7016 (IHMA 2148441), Brazil, BSI, 2019, read-out: MIC",> 64 µg/mL
same,MIC,"[3]; isolate ARC7017 (IHMA 2148446), Brazil, BSI, 2019, read-out: MIC",> 64 µg/mL
same,MIC,"[3]; isolate ARC7018 (IHMA 2045454), Guatemala, IAI, 2019, read-out: MIC",> 64 µg/mL
same,MIC,"[3]; isolate ARC7019 (IHMA 2114463), Thailand, RTI, 2019, read-out: MIC",> 64 µg/mL
same,MIC,"[3]; isolate ARC7020 (IHMA 2045326), Guatemala, RTI, 2019, read-out: MIC",64 µg/mL
same,MIC,"[3]; isolate ARC7021 (IHMA 1966347), Guatemala, RTI, 2019, read-out: MIC",64 µg/mL
same,MIC,"[3]; isolate ARC7022 (IHMA 2045319), Guatemala, IAI, 2019, read-out: MIC",64 µg/mL
same,MIC,"[3]; isolate ARC7024 (IHMA 2059448), Turkey, RTI, 2019, read-out: MIC",64 µg/mL
same,MIC,"[3]; isolate ARC7025 (IHMA 2002121), Spain, RTI, 2019, read-out: MIC",64 µg/mL
same,MIC,"[3]; isolate ARC7026 (IHMA 2104494), Guatemala, BSI, 2019, read-out: MIC",> 64 µg/mL
same,MIC,"[3]; isolate ARC7082 (IHMA 2160640), Belgium, BSI, 2020, read-out: MIC",> 64 µg/mL
same,MIC,"[3]; isolate ARC7083 (IHMA 2163687), United States, RTI, 2020, read-out: MIC",64 µg/mL
same,MIC,"[3]; isolate ARC7084 (IHMA 2189596), Germany, RTI, 2020, read-out: MIC",> 64 µg/mL
same,MIC,"[3]; isolate ARC7085 (IHMA 2205747), Guatemala, IAI, 2020, read-out: MIC",> 64 µg/mL
same,MIC,"[3]; isolate ARC7086 (IHMA 2207563), Israel, RTI, 2020, read-out: MIC",> 64 µg/mL
same,MIC,"[3]; isolate ARC7088 (IHMA 2215554), Turkey, BSI, 2020, read-out: MIC",> 64 µg/mL
same,MIC,"[3]; isolate ARC7089 (IHMA 2240345), Argentina, BSI, 2020, read-out: MIC",64 µg/mL
same,MIC,"[3]; isolate ARC7090 (IHMA 2244410), Poland, RTI, 2020, read-out: MIC",> 64 µg/mL
same,MIC,"[3]; isolate ARC7091 (IHMA 2244564), Australia, RTI, 2020, read-out: MIC",> 64 µg/mL
same,MIC,"[3]; isolate ARC7092 (IHMA 2258772), United States, BSI, 2020, read-out: MIC",> 64 µg/mL
same,MIC,"[3]; isolate ARC7093 (IHMA 2258783), United States, RTI, 2020, read-out: MIC",> 64 µg/mL
same,MIC,"[3]; isolate ARC7094 (IHMA 2296423), Turkey, RTI, 2020, read-out: MIC",64 µg/mL
same,MIC,"[3]; isolate ARC7095 (IHMA 2320843), Turkey, BSI, 2020, read-out: MIC",64 µg/mL
same,MIC,"[3]; isolate ARC7156 (IHMA 2455450), Greece, RTI, 2021, read-out: MIC",> 64 µg/mL
same,MIC,"[3]; isolate ARC7158 (IHMA 2523738), Italy, BSI, 2021, read-out: MIC",> 64 µg/mL
same,MIC,"[3]; isolate ARC7159 (IHMA 2456229), Malaysia, RTI, 2021, read-out: MIC",> 64 µg/mL
same,MIC,"[3]; isolate ARC7160 (IHMA 2458626), Thailand, RTI, 2021, read-out: MIC",> 64 µg/mL
same,MIC,"[3]; isolate ARC7161 (IHMA 2429252), Ukraine, RTI, 2021, read-out: MIC",> 64 µg/mL
same,MIC,"[3]; isolate ARC7162 (IHMA 2411847), United States, BSI, 2021, read-out: MIC",> 64 µg/mL
same,MIC,"[3]; isolate ARC7163 (IHMA 2477704), United States, BSI, 2021, read-out: MIC",> 64 µg/mL
same,% WT,A. baumannii PBP3 H370Y,106.7%
same,k inact/K i,A. baumannii PBP3 H370Y; average ± SD,480 ± 40 ([2]) M^-1s^-1
same,%NS (% non-susceptibility),"[4]; 64 non-clonal ABC isolates, 2023 CLSI breakpoints plus FDA breakpoint of 4 µg/mL for SUL-DUR",100%
same,MIC50,[4]; Acinetobacter,> 64 µg/mL
same,MIC90,[4]; Acinetobacter,> 64 µg/mL
same,MIC,"[4]; Acinetobacter, read-out: MIC Max",> 64 µg/mL
same,MIC,"[4]; Acinetobacter, read-out: MIC Min",16 µg/mL
same,% WT,A. baumannii PBP3 N377Y,62.2%
same,k inact/K i,A. baumannii PBP3 N377Y; average ± SD,280 ± 10 ([2]) M^-1s^-1
same,% WT,[5],100%
same,k inact/K i,[5]; average ± SD,450 ± 60 ([10]) M^-1s^-1
same,% WT,A. baumannii PBP3 N392T,175.6%
same,k inact/K i,A. baumannii PBP3 N392T; average ± SD,790 ± 50 ([2]) M^-1s^-1
same,% WT,A. baumannii PBP3 Q488K,82.2%
same,k inact/K i,A. baumannii PBP3 Q488K; average ± SD,370 ± 20 ([2]) M^-1s^-1
same,k inact/K i,A. baumannii PBP3 S390T,540 ± 40 ([3]) M^-1s^-1
